Read-outs that look alike come from different tables or passages of the source.
Experiments:
kinase domain of cKIT = target: T1, kinase domain of cKIT (Homo sapiens, UniProt P10721); experiment: Inhibition of cKIT kinase signaling in an in vitro biochemical assay (alphascreen); settings: tested at about 1 μM, read-out: cKit percent inhibition
T1 construct: The kinase domain of cKIT was assayed in 50 mM Hepes; purchased Upstate 14-559
Procedure: (§1) The IC50 values for the inhibition of RTKs were determined in the alphascreen format measuring the inhibition by compound of phosphate transfer to a substrate by the respective enzyme. Briefly, the respective RTK domain purchased as human recombinant protein (cKIT Upstate #14-559, PDGFRb Invitrogen #P3082) were incubated with serial dilutions of compound in the presence of substrate and ATP concentrations within 3 times the Km of the enzyme.
(§2) Alphascreen PY20 beads were added to the stopped cKIT reactions and PY20 Ab/Protein A Alphascreen beads were added to the PDGFRβ stopped reactions. Both reactions were incubated overnight and read on the Alphascreen reader.

[1] = target: T2, cytoplasmic domain of the human CSF-1R (Homo sapiens, UniProt P07333); experiment: In vitro kinase assay for colony stimulating factor-1 receptor (AlphaScreen); type: biochemical; settings: tested at about 1 μM, read-out: CSF-1R percent inhibition
T2 construct: Recombinant protein corresponding to the cytoplasmic domain of the human CSF-1R; purchased Invitrogen Corporation, Carlsbad, Calif; PV3249
T2 sequence (P07333 539-972 limits assumed): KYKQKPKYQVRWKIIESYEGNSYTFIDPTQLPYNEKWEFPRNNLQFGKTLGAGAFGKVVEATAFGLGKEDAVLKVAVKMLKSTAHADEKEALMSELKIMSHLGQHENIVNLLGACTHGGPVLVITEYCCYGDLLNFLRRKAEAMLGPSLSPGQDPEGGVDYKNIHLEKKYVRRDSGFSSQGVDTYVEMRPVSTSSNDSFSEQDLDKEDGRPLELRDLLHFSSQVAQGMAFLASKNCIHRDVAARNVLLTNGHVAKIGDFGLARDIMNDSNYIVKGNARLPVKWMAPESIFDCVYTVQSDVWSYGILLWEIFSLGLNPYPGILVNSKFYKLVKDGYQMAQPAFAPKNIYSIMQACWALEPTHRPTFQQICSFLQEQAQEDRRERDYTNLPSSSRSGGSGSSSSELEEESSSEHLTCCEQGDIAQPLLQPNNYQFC
Procedure: The kinase activity of various protein tyrosine kinases can be measured by providing ATP and a suitable peptide or protein tyrosine-containing substrate, and assaying the transfer of phosphate moiety to the tyrosine residue. Recombinant protein corresponding to the cytoplasmic domain of the human CSF-1R was purchased from Invitrogen Corporation, Carlsbad, Calif. U.S.A. (#PV3249). For each assay, test compounds were serially diluted, starting at 25 μM with 3 fold dilutions, in DMSO in 384 well plates then mixed with an appropriate kinase reaction buffer consisting of 50 mM Hepes, 5 mM MgCl2, 10 mM MnCl2, 0.1% BSA, pH 7.5, 1.0 mM dithiothreitol, 0.01% Tween 80 plus 1 μM ATP. […] Added to the stopped reaction mix was 30 μL of PT66 Alphascreen beads (Perkin Elmer, Boston, Mass., U.S.A.). The reaction was incubated overnight and read on the Envision (Perkin Elmer). Phosphorylated peptide product was measured with the AlphaScreen system (Perkin Elmer) using acceptor beads coated with anti-phosphotyrosine antibody PT66 and donor beads coated with streptavidin that emit a fluorescent signal at the 520-620 nm emission wave length if in close proximity.
CSF-1R kinase was added at final concentration of 4 nM.

kinase domain of PDGFRβ = target: T3, kinase domain of PDGFRβ (Homo sapiens, UniProt P09619); experiment: Inhibition of PDGFRb kinase signaling in an in vitro biochemical assay (alphascreen); settings: tested at about 1 μM, read-out: PDGFRβ percent inhibition
T3 construct: The kinase domain of PDGFRβ was assayed in 50 mM Hepes; purchased Invitrogen P3082
T3 sequence (P09619 600-962 limits assumed): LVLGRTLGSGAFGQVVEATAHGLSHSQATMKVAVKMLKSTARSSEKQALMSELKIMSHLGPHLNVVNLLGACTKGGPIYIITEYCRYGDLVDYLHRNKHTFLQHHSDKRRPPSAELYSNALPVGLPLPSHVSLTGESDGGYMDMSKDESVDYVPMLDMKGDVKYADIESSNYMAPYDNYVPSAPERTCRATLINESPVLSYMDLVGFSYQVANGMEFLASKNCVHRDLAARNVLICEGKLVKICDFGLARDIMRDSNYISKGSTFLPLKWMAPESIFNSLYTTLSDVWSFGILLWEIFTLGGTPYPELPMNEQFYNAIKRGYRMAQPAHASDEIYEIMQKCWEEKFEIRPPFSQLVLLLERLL
Procedure: as §1, §2

T1 sequence (P10721 589-937 limits assumed): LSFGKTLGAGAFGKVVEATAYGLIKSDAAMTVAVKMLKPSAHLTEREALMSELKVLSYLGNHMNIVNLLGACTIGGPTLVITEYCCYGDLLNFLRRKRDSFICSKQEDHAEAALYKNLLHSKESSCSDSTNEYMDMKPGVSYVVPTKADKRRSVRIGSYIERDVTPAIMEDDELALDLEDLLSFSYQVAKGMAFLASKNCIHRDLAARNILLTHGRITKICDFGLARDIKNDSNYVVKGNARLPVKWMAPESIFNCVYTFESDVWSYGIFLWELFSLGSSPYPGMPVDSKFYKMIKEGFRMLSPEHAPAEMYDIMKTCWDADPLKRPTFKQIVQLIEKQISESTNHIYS

Row | Compound | inhibition at 1 µM (kinase domain of cKIT) [%] | inhibition at 1 µM [1] [%] | inhibition at 1 µM (kinase domain of PDGFRβ) [%] | inhibition at 1 µM (kinase domain of cKIT; compounds of Table 3) [%] | inhibition at 1 µM ([1]; compounds of Table 3) [%] | inhibition at 1 µM (kinase domain of PDGFRβ; compounds of Table 3) [%]
1 | CNC(=O)c1cc(Oc2ccc3nc(N[C@H]4CCCC[C@H]4NC(=O)c4ccccc4)sc3c2)ccn1 [Example 312, 4-(2-((1S,2R)-2-benzamidocyclohexylamino)benzo[d]thiazol-6-yloxy)-N-methylpicolinamide] | 0 | 76 | 14 |  |  | 
2 | CC(=O)N[C@@H]1CCN(c2cc(Oc3ccc4nc(N[C@@H]5CCCC[C@H]5O)sc4c3)ccn2)C1 [Cmpd 177, N-((R)-1-(4-(2-((1R,2R)-2-hydroxycyclohexylamino)benzo[d]thiazol-6-yloxy)pyridin-2-yl)pyrrolidin-3-yl)acetamide] |  |  |  | 15 | 67 | 0
3 | NCc1cc(Oc2ccc3nc(NCC4CCCCC4)oc3c2)ccn1 [Compound 111, [6-(2-Aminomethyl-pyridin-4-yloxy)-benzooxazol-2-yl]-cyclohexylmethyl-amine] | 15 | 25 | 2 |  |  | 
4 | CN1CCN(c2cc(Oc3ccc4nc(N[C@@H]5CCCC[C@H]5O)sc4c3)ccn2)CC1 [Cmpd 176, (1R,2R)-2-(6-(2-(4-methylpiperazin-1-yl)pyridin-4-yloxy)benzo[d]thiazol-2-ylamino)cyclohexanol] |  |  |  | 12 | 63 | 0
5 | CNC(=O)c1cc(Oc2ccc3nc(N[C@H]4CCCC[C@H]4NC(=O)CC(C)C)sc3c2)ccn1 [Example 311, N-methyl-4-(2-((1S,2R)-2-(3-methylbutyanamido)cyclo-hexylamino)benzo[d]thiazol-6-yloxy)picolinamide] | 22 | 93 | 88 |  |  | 
6 | O[C@@H]1CCCC[C@H]1Nc1nc2ccc(Oc3ccnc(C4=CCNCC4)c3)cc2s1 [Compound 161] |  |  |  | 20 | 54 | 26
7 | CNC(=O)c1cc(Oc2ccc3nc(N[C@H]4CC[C@@H](NC(=O)c5ccccc5)CC4)sc3c2)ccn1 [Compound 135] |  |  |  | 21 | 75 | 11
8 | CNC(=O)c1cc(Oc2ccc3nc(NCC(O)COC)sc3c2)ccn1 (stereo not drawn) [Compound 127] |  |  |  | 0 | 95 | 0
9 | Cn1nccc1-c1cnccc1Oc1ccc2nc(N[C@@H]3CCCC[C@H]3O)sc2c1 [Example 191] |  |  |  | 19 | 45 | 15
10 | O[C@@H]1CCCC[C@H]1Nc1nc2ccc(Oc3ccnc(N4CCCCC4)c3)cc2s1 [Cmpd 174, (1R,2R)-2-(6-(2-(piperidin-1-yl)pyridin-4-yloxy)benzo[d]thiazol-2-ylamino)cyclohexanol] |  |  |  | 18 | 86 | 3
11 | CNC(=O)c1cc(Oc2ccc3nc(N[C@@H](C(=O)NC)C4CCCCC4)oc3c2)ccn1 [Compound 62, 4-{2-[((R)-Cyclohexyl-methylcarbamoyl-methyl)-amino]-benzooxazol-6-yloxy}-pyridine-2-carboxylic acid methylamide] | 7 | 19 | 5 |  |  | 
12 | CNC(=O)c1cc(Oc2ccc3nc(N[C@@H]4CCCC[C@H]4OCc4ccccc4)sc3c2)ccn1 [Compound 155, 4-[2-((1R,2R)-2-Benzyloxy-cyclohexylamino)-benzothiazol-6-yloxy]-pyridine-2-carboxylic acid methylamide] | 0 | 87 | 8 |  |  | 
13 | OCc1cc(Oc2ccc3nc(NCC4CCCCC4)oc3c2)ccn1 [Compound 80, {4-[2-(Cyclohexylmethyl-amino)-benzooxazol-6-yloxy]-pyridin-2-yl}-methanol] | 7 | 87 | 0 |  |  | 
14 | N#Cc1cc(Oc2ccc3nc(N[C@@H]4CCCC[C@H]4O)sc3c2)ccn1 [Example 226, 4-(2-((1R,2R)-2-hydroxycyclohexylamino)benzo[d]thiazol-6-yloxy)picolinonitrile] |  |  |  | 20 | 80 | 0
15 | CNC(=O)c1cc(Oc2ccc3nc(NC4CCCC(N)C4)sc3c2)ccn1 (stereo not drawn) [Example 294, 4-(2-(3-aminocyclohexylamino)benzo[d]thiazol-6-yloxy)-N-methylpicolinamide] |  |  |  | 1 | 87 | 0
16 | CNC(=O)c1cc(Oc2ccc3nc(N[C@H]4CCCC[C@H]4NC(C)=O)sc3c2)ccn1 [Example 295, 4-(2-((1S,2R)-2-acetamidocyclohexylamino)benzo[d]thiazol-6-yloxy)-N-methylpicolinamide] |  |  |  | 5 | 85 | 0
17 | CNC(=O)c1cc(Oc2ccc3nc(NC(C)C(O)c4cc(OC)ccc4OC)sc3c2)ccn1 (stereo not drawn) [Compound 123] |  |  |  | 1 | 62 | 0
18 | CNC(=O)c1cc(Oc2ccc3nc(NCC4CN(Cc5ccccc5)CCO4)oc3c2)ccn1 (stereo not drawn) [Compound 120, 4-{2-[(4-Benzyl-morpholin-2-ylmethyl)-amino]-benzooxazol-6-yloxy}-pyridine-2-carboxylic acid methylamide] | 5 | 75 | 0 |  |  | 
19 | CNC(=O)c1cc(Oc2ccc3nc(N[C@H]4c5ccccc5C[C@H]4O)oc3c2)ccn1 [Compound 49, 4-[2-((1S,2R)-2-Hydroxy-indan-1-ylamino)-benzooxazol-6-yloxy]-pyridine-2-carboxylic acid methylamide] | 63 | 55 | 25 |  |  | 
20 | O[C@@H]1CCCC[C@H]1Nc1nc2ccc(Oc3ccnc(Cl)c3)cc2s1 [Example 225, (1R,2R)-2-(6-(2-chloropyridin-4-yloxy)benzo[d]thiazol-2-ylamino)cyclohexanol] |  |  |  | 21 | 90 | 0
21 | Cn1cc(-c2cc(Oc3ccc4nc(N[C@@H]5CCCc6ccccc65)sc4c3)ccn2)cn1 [Example 363, (R)-6-(2-(1-methyl-1H-pyrazol-4-yl)pyridin-4-yloxy)-N-(1,2,3,4-tetrahydronaphthalen-1-yl)benzo[d]thiazol-2-amine] | 100 | 100 | 99 |  |  | 
22 | CNC(=O)c1cc(Oc2ccc3nc(NC4CCCCCCC4)sc3c2)ccn1 [Compound 129] |  |  |  | 99 | 100 | 99
23 | CNC(=O)c1cc(Oc2ccc3nc(N[C@H]4CCCN(C(=O)NC(C)C)C4)sc3c2)ccn1 [Example 333, (S)-4-(2-(1-(isopropylcarbamoyl)piper-idin-3-ylamino)benzo[d]thiazol-6-yloxy)-N-methylpicolinamide] | 21 | 86 | 6 |  |  | 
24 | CNC(=O)c1cc(Oc2ccc3nc(N[C@H]4CCCC[C@H]4N)sc3c2)ccn1 [Example 292, 4-(2-((1S,2R)-2-aminocyclohexylamino)benzo[d]thiazol-6-yloxy)-N-methylpicolinamide] |  |  |  | 3 | 95 | 0
25 | CNC(=O)c1cc(Oc2ccc3nc(NC4CCN(C(C)=O)CC4)sc3c2)ccn1 [Example 307, 4-(2-(1-acetylpiperidin-4-ylamino)benzo[d]thiazol-6-yloxy)-N-methylpicolinamide] | 15 | 90 | 6 |  |  | 
